Data on 1 compound can be found in patent publication US20240353414A1 (Calico Life Sciences LLC, priority 2021, published 2024).

Assay [1] deals with mitochondrial pH. The settings on record: BALB/cJ mouse, subcutaneous tumor expressing mito-pH-Countdown, before vs after administration of BAM15.
Source text: Left panel: Raw time lapse animation (grayscale) of the back of a BALB/cJ mouse carrying a subcutaneous tumor expressing mito-pH-Countdown, measured in the GFP channel of a simple fluorescence photography system. […] Orange/blue/green box marks a region expressing mito-pH-Countdown. Right panel: Average fluorescent signal vs. time for two measurements before(orange, dots) and two measurements after (blue or green, triangles) administration of the mitochondrial uncoupler BAM15. […] Light gray lines show calibration measurements for pH 7.5 (solid) and pH 8 (dashed).
In assay [2] the test system is mitochondrial pH. The settings on record: same cell type given the same drug in a dish.

In the case of `Fc1ccccc1Nc1nc2nonc2nc1Nc1ccccc1F` [BAM15], in the assay with mitochondrial pH [1], the “drug-induced shift in mitochondrial pH” value is on record as “roughly 0.2 pH units”. Further, in the assay on mitochondrial pH [2], the “shift in mitochondrial pH” value was roughly 1 pH unit.
